# System: SNL-induced thermal hyperalgesia
# Assay: SNL-induced thermal hyperalgesia, paw withdrawal latency
# Format: in vivo, mice
# Details: mice, ZL006-05 60 mg/kg, i.g., 0-24 h
# Experimental: Neuropathic pain was induced by segmental spinal nerve ligation (SNL). Animals were anesthetized with isoflurane. After the loss of righting reflex, the animal was fixed in the prone position. The SNL model was prepared as described previously: a median skin incision with about 3-5 cm length in L4-S2 level of the mouse back was made, the muscles next to the vertebrae till the sixth lumbar protruding were separated, the L5/L6 joint protruding on the right side was exposed and excised, and L6 processus transversus was partially split so that the L4-L6 spinal nerves on the right side were exposed. L5 nerve was gently isolated and tightly ligated with 5-0 silk thread. […]
# Paw withdrawal latency (PWL) response to thermal stimulus was assessed through the Hargreaves test. […] To record the PWL in response to thermal stimulus, each animal was measured five times with a 5-min interval, and the mean value was recorded after excluding maximal and minimum values. […]
# (A) Time course of SNL-induced thermal hyperalgesia after treating with ZL006-05 (60 mg/kg, i.g.) in mice. Paw withdrawal latency response to thermal stimulation was detected at 0, 1, 2, 4, 6, 8, 10, 12 and 24 h after drug administration. ( B) Areas under the curve of paw withdrawal latency 0-24 h after treatment calculated from ( A) (F (1,16) = 43.07, ***p < 0.001, two-tailed t-test, n = 9). […]
smiles,measurement,value
CC1(C)C2CCC1(C)C(OC(=O)c1ccc(NCc3cc(Cl)cc(Cl)c3O)cc1O)C2 (stereo not shown) [ZL006-05],Effect on SNL-induced thermal hyperalgesia,reduced SNL-induced mechanical hyperalgesia and thermal pain
